A value given as a limit tells only on which side of the number the result lay.

System in one series: not listed separately
In words: Cytotoxicity against […] infected with DENV-NGC-1 incubated for 7 days by CellTiter 96 luminescent cell viability assay. To be noted: time 7 day. Format: toxicity, cell-based.
As for `O=C(c1ccc(C(F)(F)F)cc1O)c1[nH]c(Cl)c(Cl)c1-n1c(C(=O)c2ccc(C(F)(F)F)cc2O)cc(Cl)c1Sc1nc2ccccc2[nH]1`, the midpoint of cytotoxicity, the CC50 at 168 h, lay at 25.3 µM.

System in a further series: not listed separately
As to the kind of experiment: Cytotoxicity against […] infected with ZIKV-SMGC-1 incubated for 7 days by CellTiter 96 luminescent cell viability assay. Format: toxicity, cell-based. To be noted: time 7 day.
Take `O=C(c1ccc(C(F)(F)F)cc1O)c1[nH]c(Cl)c(Cl)c1-n1c(C(=O)c2ccc(C(F)(F)F)cc2O)cc(Cl)c1SCc1ncccn1`: the CC50 (commonly the concentration at which the toxic effect on the cells reaches its halfway point) at 168 h was determined as 0.61 µM.

As to `O=C(c1ccc(C(F)(F)F)cc1O)c1[nH]c(Cl)c(Cl)c1-n1c(C(=O)c2ccc(C(F)(F)F)cc2O)cc(Cl)c1Sc1nnnn1CCO`, the CC50 at 168 h came to 8.01 µM.

On to `O=C(c1ccc(C(F)(F)F)cc1O)c1[nH]c(Cl)c(Cl)c1-n1c(C(=O)c2ccc(C(F)(F)F)cc2O)cc(Cl)c1Sc1nc2ccccc2[nH]1`, for which half-maximal cytotoxicity (CC50 at 168 h) was put at 0.11 µM.

System in a further series: not listed separately
As to the kind of experiment: Selectivity index, ratio of CC50 for […] to IC50 for ZIKV-SMGC-1 infected in […]. Format: toxicity, cell-based. To be noted: read-out: Ratio CC50/IC50.
With `O=C(c1ccc(C(F)(F)F)cc1O)c1[nH]c(Cl)c(Cl)c1-n1c(C(=O)c2ccc(C(F)(F)F)cc2O)cc(Cl)c1Sc1nnnn1CCO`, the selectivity ratio came to 1.25.

Consider `O=C(c1ccc(C(F)(F)F)cc1O)c1[nH]c(Cl)c(Cl)c1-n1c(C(=O)c2ccc(C(F)(F)F)cc2O)cc(Cl)c1Sc1nc2ccccc2[nH]1`, for which the selectivity ratio was 1.75.

System in a further series: not listed separately
In words: Selectivity index, ratio of CC50 for […] to IC50 for YFV-17D infected in […]. Format: toxicity, cell-based. To be noted: read-out: Ratio CC50/IC50.
In the case of `O=C(c1ccc(C(F)(F)F)cc1O)c1[nH]c(Cl)c(Cl)c1-n1c(C(=O)c2ccc(C(F)(F)F)cc2O)cc(Cl)c1Sc1nnnn1CCO`, the selectivity ratio came to 1.47.

With `O=C(c1ccc(C(F)(F)F)cc1O)c1[nH]c(Cl)c(Cl)c1-n1c(C(=O)c2ccc(C(F)(F)F)cc2O)cc(Cl)c1Sc1nc2ccccc2[nH]1`, the selectivity ratio was found to be 1.33.

System in the next series: not listed separately
In words: Selectivity index, ratio of CC50 for […] to IC50 for DENV-NGC infected in […]. Format: toxicity, cell-based. To be noted: read-out: Ratio CC50/IC50.
As for `O=C(c1ccc(C(F)(F)F)cc1O)c1[nH]c(Cl)c(Cl)c1-n1c(C(=O)c2ccc(C(F)(F)F)cc2O)cc(Cl)c1Sc1nc2ccccc2[nH]1`, the selectivity ratio was determined as 1.17.

A further series relates to Zika virus. As to the kind of experiment: Antiviral activity against ZIKV-SMGC-1 infected in […] incubated for 7 days by CellTiter 96 luminescent cell viability assay. To be noted: SMGC-1, BHK, 168 h. Format: functional, organism-based.
As for `O=C(c1ccc(C(F)(F)F)cc1O)c1[nH]c(Cl)c(Cl)c1-n1c(C(=O)c2ccc(C(F)(F)F)cc2O)cc(Cl)c1Sc1nnnn1CCO`, the midpoint of inhibition, the IC50, lay at 6.41 µM.

For `O=C(c1ccc(C(F)(F)F)cc1O)c1[nH]c(Cl)c(Cl)c1-n1c(C(=O)c2ccc(C(F)(F)F)cc2O)cc(Cl)c1Cl`, the IC50 (in general, the concentration at which inhibition is half-maximal) was above 0.3 µM.

In turn, `O=C(c1ccc(C(F)(F)F)cc1O)c1[nH]c(Cl)c(Cl)c1-n1c(C(=O)c2ccc(C(F)(F)F)cc2O)cc(Cl)c1Sc1nc2ccccc2[nH]1` came in with an IC50 of 14.5 µM.

System in the next series: not listed separately
As to the kind of experiment: Cytotoxicity against human RD cells infected with CA16 incubated for 3 days by CellTiter 96 luminescent cell viability assay. To be noted: time 3 day. Format: toxicity, cell-based.
Compound `O=C(c1ccc(C(F)(F)F)cc1O)c1[nH]c(Cl)c(Cl)c1-n1c(C(=O)c2ccc(C(F)(F)F)cc2O)cc(Cl)c1SCc1ncccn1` came in with a CC50 at 72 h of 0.83 µM.

`O=C(c1ccc(C(F)(F)F)cc1O)c1[nH]c(Cl)c(Cl)c1-n1c(C(=O)c2ccc(C(F)(F)F)cc2O)cc(Cl)c1Sc1nnnn1CCO` displayed a CC50 at 72 h of 15.3 µM.

On to `O=C(c1ccc(C(F)(F)F)cc1O)c1[nH]c(Cl)c(Cl)c1-n1c(C(=O)c2ccc(C(F)(F)F)cc2O)cc(Cl)c1Cl`, for which the CC50 at 72 h stood at 0.25 µM.

In turn, `O=C(c1ccc(C(F)(F)F)cc1O)c1[nH]c(Cl)c(Cl)c1-n1c(C(=O)c2ccc(C(F)(F)F)cc2O)cc(Cl)c1Sc1nc2ccccc2[nH]1` registered a CC50 at 72 h of 45.6 µM.

For the next series, the system named is Japanese encephalitis virus. In words: Antiviral activity against JEV-SA14 infected in […] incubated for 7 days by CellTiter 96 luminescent cell viability assay. Format: functional, organism-based. To be noted: 168 h.
Compound `O=C(c1ccc(C(F)(F)F)cc1O)c1[nH]c(Cl)c(Cl)c1-n1c(C(=O)c2ccc(C(F)(F)F)cc2O)cc(Cl)c1Cl` came in with an IC50 above 200 µM.

System in a further series: not listed separately
As to the kind of experiment: Selectivity index, ratio of CC50 for human RD cells to IC50 for EV71 infected in human RD cells. Format: toxicity, cell-based. To be noted: read-out: Ratio CC50/IC50.
For the compound `O=C(c1ccc(C(F)(F)F)cc1O)c1[nH]c(Cl)c(Cl)c1-n1c(C(=O)c2ccc(C(F)(F)F)cc2O)cc(Cl)c1SCc1ncccn1`, the selectivity ratio turned out to be 2.78.

For `O=C(c1ccc(C(F)(F)F)cc1O)c1[nH]c(Cl)c(Cl)c1-n1c(C(=O)c2ccc(C(F)(F)F)cc2O)cc(Cl)c1Sc1nnnn1CCO`, the selectivity ratio was 2.27.

As for `O=C(c1ccc(C(F)(F)F)cc1O)c1[nH]c(Cl)c(Cl)c1-n1c(C(=O)c2ccc(C(F)(F)F)cc2O)cc(Cl)c1Cl`, the selectivity ratio came out at 1.96.

A further series has as its system Coxsackievirus A16. As to the kind of experiment: Antiviral activity against CA16 infected in human RD cells incubated for 3 days by CellTiter 96 luminescent cell viability assay. Format: functional, organism-based. To be noted: Enterovirus A, 72 h.
As to `O=C(c1ccc(C(F)(F)F)cc1O)c1[nH]c(Cl)c(Cl)c1-n1c(C(=O)c2ccc(C(F)(F)F)cc2O)cc(Cl)c1SCc1ncccn1`, the IC50 came to 0.08 µM.

The compound `O=C(c1ccc(C(F)(F)F)cc1O)c1[nH]c(Cl)c(Cl)c1-n1c(C(=O)c2ccc(C(F)(F)F)cc2O)cc(Cl)c1Sc1nnnn1CCO` showed an IC50 of 2.51 µM.

In turn, `O=C(c1ccc(C(F)(F)F)cc1O)c1[nH]c(Cl)c(Cl)c1-n1c(C(=O)c2ccc(C(F)(F)F)cc2O)cc(Cl)c1Cl` displayed an IC50 of 0.01 µM.

The compound `O=C(c1ccc(C(F)(F)F)cc1O)c1[nH]c(Cl)c(Cl)c1-n1c(C(=O)c2ccc(C(F)(F)F)cc2O)cc(Cl)c1Sc1nc2ccccc2[nH]1` gave an IC50 of 9.13 µM.

The test system of a further series is Enterovirus A71. In words: Antiviral activity against EV71 infected in human RD cells incubated for 3 days by CellTiter 96 luminescent cell viability assay. Format: functional, organism-based. To be noted: Enterovirus A, 71, RD, 72 h.
For the compound `O=C(c1ccc(C(F)(F)F)cc1O)c1[nH]c(Cl)c(Cl)c1-n1c(C(=O)c2ccc(C(F)(F)F)cc2O)cc(Cl)c1SCc1ncccn1`, the IC50 worked out at 0.2 µM.

`O=C(c1ccc(C(F)(F)F)cc1O)c1[nH]c(Cl)c(Cl)c1-n1c(C(=O)c2ccc(C(F)(F)F)cc2O)cc(Cl)c1Sc1nnnn1CCO`: the IC50 worked out at 4.77 µM.

Regarding `O=C(c1ccc(C(F)(F)F)cc1O)c1[nH]c(Cl)c(Cl)c1-n1c(C(=O)c2ccc(C(F)(F)F)cc2O)cc(Cl)c1Cl`, the IC50 is 0.06 µM.

System in the next series: not listed separately
As to the kind of experiment: Cytotoxicity against […] infected with YFV-17D incubated for 7 days by CellTiter 96 luminescent cell viability assay. Format: toxicity, cell-based. To be noted: time 7 day.
`O=C(c1ccc(C(F)(F)F)cc1O)c1[nH]c(Cl)c(Cl)c1-n1c(C(=O)c2ccc(C(F)(F)F)cc2O)cc(Cl)c1Sc1nnnn1CCO`: the CC50 at 168 h came to 12.2 µM.

`O=C(c1ccc(C(F)(F)F)cc1O)c1[nH]c(Cl)c(Cl)c1-n1c(C(=O)c2ccc(C(F)(F)F)cc2O)cc(Cl)c1Sc1nc2ccccc2[nH]1` displayed a CC50 at 168 h of 30.8 µM.

System in the next series: not listed separately
As to the kind of experiment: Cytotoxicity against human RD cells infected with EV71 incubated for 3 days by CellTiter 96 luminescent cell viability assay. To be noted: time 3 day. Format: toxicity, cell-based.
The compound `O=C(c1ccc(C(F)(F)F)cc1O)c1[nH]c(Cl)c(Cl)c1-n1c(C(=O)c2ccc(C(F)(F)F)cc2O)cc(Cl)c1SCc1ncccn1` displayed a CC50 at 72 h of 0.56 µM.

With `O=C(c1ccc(C(F)(F)F)cc1O)c1[nH]c(Cl)c(Cl)c1-n1c(C(=O)c2ccc(C(F)(F)F)cc2O)cc(Cl)c1Sc1nnnn1CCO`, the CC50 at 72 h amounted to 10.8 µM.

Regarding `O=C(c1ccc(C(F)(F)F)cc1O)c1[nH]c(Cl)c(Cl)c1-n1c(C(=O)c2ccc(C(F)(F)F)cc2O)cc(Cl)c1Cl`, the CC50 at 72 h worked out at 0.12 µM.

The subject of another series is Dengue virus. In words: Antiviral activity against DENV-NGC-1 infected in […] incubated for 7 days by CellTiter 96 luminescent cell viability assay. Format: functional, organism-based. To be noted: NGC-1, BHK, 168 h.
`O=C(c1ccc(C(F)(F)F)cc1O)c1[nH]c(Cl)c(Cl)c1-n1c(C(=O)c2ccc(C(F)(F)F)cc2O)cc(Cl)c1Cl` displayed an IC50 above 0.3 µM.

Turning to `O=C(c1ccc(C(F)(F)F)cc1O)c1[nH]c(Cl)c(Cl)c1-n1c(C(=O)c2ccc(C(F)(F)F)cc2O)cc(Cl)c1Sc1nc2ccccc2[nH]1`, half-maximal inhibition (IC50) was put at 21.7 µM.

System in the next series: not listed separately
As to the kind of experiment: Selectivity index, ratio of CC50 for human RD cells to IC50 for CA16 infected in human RD cells. Format: toxicity, cell-based. To be noted: read-out: Ratio CC50/IC50.
As to `O=C(c1ccc(C(F)(F)F)cc1O)c1[nH]c(Cl)c(Cl)c1-n1c(C(=O)c2ccc(C(F)(F)F)cc2O)cc(Cl)c1SCc1ncccn1`, the selectivity ratio came out at 10.4.

In the case of `O=C(c1ccc(C(F)(F)F)cc1O)c1[nH]c(Cl)c(Cl)c1-n1c(C(=O)c2ccc(C(F)(F)F)cc2O)cc(Cl)c1Sc1nnnn1CCO`, the selectivity ratio is 6.1.

As for `O=C(c1ccc(C(F)(F)F)cc1O)c1[nH]c(Cl)c(Cl)c1-n1c(C(=O)c2ccc(C(F)(F)F)cc2O)cc(Cl)c1Cl`, the selectivity ratio is 24.6.

In the case of `O=C(c1ccc(C(F)(F)F)cc1O)c1[nH]c(Cl)c(Cl)c1-n1c(C(=O)c2ccc(C(F)(F)F)cc2O)cc(Cl)c1Sc1nc2ccccc2[nH]1`, the selectivity ratio came out at 5.

The next series concerns Yellow fever virus. In words: Antiviral activity against YFV-17D infected in […] incubated for 7 days by CellTiter 96 luminescent cell viability assay. To be noted: 168 h. Format: functional, organism-based.
With `O=C(c1ccc(C(F)(F)F)cc1O)c1[nH]c(Cl)c(Cl)c1-n1c(C(=O)c2ccc(C(F)(F)F)cc2O)cc(Cl)c1Sc1nnnn1CCO`, half-maximal inhibition (IC50) required 8.31 µM.

In the case of `O=C(c1ccc(C(F)(F)F)cc1O)c1[nH]c(Cl)c(Cl)c1-n1c(C(=O)c2ccc(C(F)(F)F)cc2O)cc(Cl)c1Cl`, the IC50 is above 200 µM.

`O=C(c1ccc(C(F)(F)F)cc1O)c1[nH]c(Cl)c(Cl)c1-n1c(C(=O)c2ccc(C(F)(F)F)cc2O)cc(Cl)c1Sc1nc2ccccc2[nH]1`: the IC50 is 23.2 µM.

Values taken from ChEMBL document CHEMBL5113415, “Synthesis of 10,10'-bis(trifluoromethyl) marinopyrrole A derivatives and evaluation of their antiviral activities in vitro” (Eur J Med Chem, 2022).
